One data set has as its system SBLF9 fibroblasts. Description: Mitochondrial ROS imaging (MitoSOX), SBLF9 fibroblasts. It is filed as cell-based. Particulars: 5 µM. The protocol: The cells were re-suspended in RPMI 1640 medium containing 5% FBS, 1% L-glutamine and 1% penicillin/streptomycin (100 µL). Finally, the fluorescence of live cells (λex = 488 nm, λem = 530 nm) in the suspensions was determined by using flow cytometry (Figure […]
Figure S62. Fluorescence of DAF-FM diacetate-loaded A2780 cells treated either with 2c or the carrier. *: p<0.05, Student’s t test.
Effect of prodrug 2c on mitochondrial reactive oxygen species in representative cancer (A2780) and normal cells (SBLF9 fibroblasts) (Figure 6)
A2780 cells were seeded in of RPMI 1640 medium (500 µL) supplemented with 5% FBS, 1% L-glutamine, and 1% penicillin/streptomycin on a 35 mm imaging dish (µ- Dish 35 mm, high, ibidi GmbH, Germany) at a cell density of 80 cells/µL and allowed to attach to the surface of the dish for overnight. […]
The fluorescence images were taken with a Zeiss Axio Vert.A1 fluorescence microscope […]
4x10^4 cells per well. […] Cell viability was assessed by quantification of ATP (CellTiter Glo®, Promega) 48 hours after drug application.
Luminescence was measured on a Tecan Infinite F200 Microplate Reader. Viability was calculated as % of solvent (DMSO) treated control. […]

The test system of the next data set is A2780 cells. Description: Intracellular carbonyl derivatives (DCCH), A2780. The format is cell-based, human. The note with it: 24 h. Here is the method: and the cells were incubated in the dark chamber filled with CO2 (5%) at 37 °C for 20 min.
Next, the cells were detached from the culture dish using trypsin/EDTA (0.025%/0.01%, v/v, 50 µL). The cells were re-suspended in RPMI 1640 medium containing 5% FBS, 1% L-glutamine and 1% penicillin/streptomycin (100 µL). Finally, the fluorescence of live cells (λex = 488 nm, λem = 578 nm) in the suspensions was determined by using flow cytometry […]
Figure S60. Representative flow cytometric histograms used for setting up Figures 4B […]
Monitoring intracellular carbonyl derivatives
A2780 cells were seeded into 24 well culture plates at the same cell concentration and in the same medium as applied for the assay for monitoring tROS described above. The next day, stock solutions of prodrugs of different concentrations (5 μL of stock solutions in DMSO, final concentration of prodrugs 5 and 10 μM; control 7 2 and 5 µM) or carrier only (DMSO, 5 µL, final concentration 1 %, v/v) were added to the wells and incubated in the chamber filled with CO2 (5%). After 24 h, the cells were washed twice with DPBS buffer and the medium was replaced with HBSS (Hanks' Balanced Salt solution, 500 μL). […]
Finally, the fluorescence of live cells (λex = 488 nm, λem = 530 nm) in the suspensions was determined by using flow cytometry (Figure 4C). […]

On to `CC1(C)OB(c2ccc(COC(=O)N(Cc3cn(Cc4ccc(Cn5cc(Cc6ccccc6)nn5)cc4)nn3)[c-]3cccc3)cc2)OC1(C)C.[Fe+2].c1cc[cH-]c1` [2c], for which the “mROS level in normal cells” value with SBLF9 fibroblasts was “only a slight increase of mROS level”. In addition, the “formation of intracellular carbonyl derivatives” value in the data set with A2780 cells is “did not induce formation of significant amounts of carbonyl derivatives”.

The values are drawn from publication PMC8750417, “Intracellular Amplifiers of Reactive Oxygen Species Affecting Mitochondria as Radiosensitizers” (Cancers, 2021).
